Where two headings read alike, the source gives them in different places.
What was measured:
[1] = test system: G93A SOD1 B6SJL hybrid (G93A) model; assay: Disease progression score (JAX SOP) in G93A SOD1 transgenic mice
Description: The disease progression score is based on the JAX SOP (Ludolph A C, Bendotti C, Blaugrund E, Hengerer B, Loffler J P, Martin J, Meininger V, Meyer T, Moussaoui S, Robberecht W, Scott S, Silani V, Van Den Berg L H (ENMC Group For The Establishment Of Guidelines For The Conduct Of Preclinical And Proof Of Concept Studies In ALS/MND Models). 2007, which is incorporated by reference).

[2] = test system: G93A SOD1 B6SJL hybrid (G93A) model; settings: for HR survival (FIG. 14): all mice; for HR survival (FIG. 16): female mice; for HR survival (FIG. 15): male mice;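 on HR survival (FIG. 14): dosing began after ALS onset in G93A SOD1 mice, with survival as the endpoint, defined humanely as the animal failing to regain upright posture within 30 s when placed sideways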;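 on HR survival (FIG. 16): dosing began after ALS onset in G93A SOD1 mice, with survival as the endpoint, defined humanely as the animal failing to regain upright posture within 30 s when placed sideways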
[3] = test system: G93A SOD1 B6SJL hybrid (G93A) model; assay: Body weight and body composition (lean mass, fat mass; NMR scans) in G93A SOD1 transgenic mice; format: in vivo; settings: for Average Δ fat mass / Average Δ lean mass / Average Δ body weight: per day alive after disease onset
Description: (§1) Transgenic mice over-expressing a high copy number (25 copies) of mutated human SOD1 gene with a G93A point mutation, i.e., B6SJL-TgN [SOD1-G93A]1 Gur (G1H-G93A transgenic mice, JR2726; Hemizygote) (Gurney M E, et al., Science, 264, 1772-1775, 1994) (“G93A SOD1 B6SJL hybrid (G93A) model”), were used.
[…] […] There were 16 mice in the S-oxprenolol group.
The primary endpoint was survival, humanely defined as the ability of the animal to right itself in 30 seconds after being laid on its side. Secondary endpoints were body weight, body composition, spontaneous activity and food intake. Body weight of the animals was assessed weekly until onset of disease. Additionally, body composition (fat mass and lean body mass) was assessed using NMR scans (EchoMRI-100, Echo Medical Systems, Houston, USA) every 4 days. After onset of disease, body weight and body composition were assessed every two days until the end of the study. All personal handling the animals was strictly blinded to the randomized treatment allocation.
To study the effect of S-oxprenolol on body weight, body weight was monitored over time.
To study the effect of the test compounds on lean body mass, lean mass was determined at the end of the study.
To study the effect of the test compounds on fat mass, the fat mass were determined at the end of the study.
To study the effect of S-oxprenolol on body weight, body weight was monitored over time. […] The number of all mice in the population is indicated as “n” in at the bottom of FIGS. 20A-20C.
To study the effect of the test compounds on lean body mass, lean mass was determined at the end of the study. […] The number of all mice in the population is indicated as “n” in at the bottom of FIGS. 20D-20F.
To study the effect of the test compounds on fat mass, the fat mass were determined at the end of the study. […] The number of all mice in the population is indicated as “n” in at the bottom of FIGS. 20G-20I.

[4] = test system: G93A SOD1 B6SJL hybrid (G93A) model; settings: for Heart / gastrocnemius: end of study;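 on HR survival (FIG. 14): dosing began after ALS onset in G93A SOD1 mice, with survival as the endpoint, defined humanely as the animal failing to regain upright posture within 30 s when placed sideways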;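 on HR survival (FIG. 16): dosing began after ALS onset in G93A SOD1 mice, with survival as the endpoint, defined humanely as the animal failing to regain upright posture within 30 s when placed sideways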
Procedure: as §1
To study the effect of the test compounds on skeletal muscle atrophy, the skeletal muscle mass were determined at the end of the study.
The number of all mice in the population is indicated as “n” in at the bottom of FIGS. 21A-21C.
The number of all mice in the population is indicated as “n” in at the bottom of FIGS. 20D-20F.
The number of all mice in the population is indicated as “n” in at the bottom of FIGS. 21G-21I.

[5] = 20 mg/kg/day vs. S-Oxprenolol (20)

## C=CCOc1ccccc1OCC(O)CNC(C)C (racemic) [oxprenolol, 1-[2-(allyloxy)phenoxy]-3-(isopropylamino)propan-2-ol]
[1]; 20 mg/kg/day vs. placebo
  HR Progression from score 1 to score 2 (FIG. 17): 0.60
  HR Progression from score 1 to score 3 (FIG. 19): 0.60
  HR Progression from score 2 to score 3 (FIG. 18): 0.77
[2]; 20 mg/kg/day vs. placebo
  HR survival (FIG. 14): 0.66
  HR survival (FIG. 16): 1.03
  HR survival (FIG. 15): 0.38
[3]; all mice, 20 mg/kg/d
  Δ body weight: -5.59 ± 0.48 g
  Δ fat mass: -1.49 ± 0.12 g
  Δ lean mass: -4.67 ± 0.42 g
  Average Δ fat mass: -33.1 ± 2.6 mg/day
  Average Δ lean mass: -102.0 ± 10.7 mg/day
[3]; female mice, 20 mg/kg/d
  Δ body weight: -5.27 ± 0.61 g
  Δ fat mass: -1.64 ± 0.21 g
  Δ lean mass: -3.76 ± 0.42 g
  Average Δ body weight: -122.5 ± 14.7 mg/day
  Average Δ fat mass: -37.5 ± 3.7 mg/day
  Average Δ lean mass: -85.8 ± 11.6 mg/day
[3]; male mice, 20 mg/kg/d
  Δ body weight: -5.94 ± 0.77 g
  Δ fat mass: -1.33 ± 0.13 g
  Δ lean mass: -5.64 ± 0.68 g
  Average Δ body weight: -124.8 ± 20.7 mg/day
  Average Δ fat mass: -28.3 ± 3.1 mg/day
  Average Δ lean mass: -119.4 ± 17.7 mg/day
[4]; all mice, 20 mg/kg/d
  BAT (brown adipose tissue): 40.6 ± 2.8 mg
  EDL (extensor digitorum longus): 7.24 ± 0.41 mg
  soleus: 4.99 ± 0.36 mg
  Heart: 100.2 ± 3.2 mg
  gastrocnemius: 52.2 ± 2.3 mg
[4]; female mice, 20 mg/kg/d
  BAT (brown adipose tissue): 35.2 ± 4.1 mg
  EDL (extensor digitorum longus): 6.97 ± 0.36 mg
  soleus: 4.76 ± 0.52 mg
  Heart: 89.5 ± 2.4 mg
  gastrocnemius: 49.5 ± 2.1 mg
[4]; male mice, 20 mg/kg/d
  BAT (brown adipose tissue): 45.7 ± 3.6 mg
  EDL (extensor digitorum longus): 7.49 ± 0.72 mg
  soleus: 5.21 ± 0.51 mg
  Heart: 110.2 ± 2.9 mg
  gastrocnemius: 54.7 ± 3.9 mg

## C=CCOc1ccccc1OC[C@H](O)CNC(C)C [R-oxprenolol, (R)-1-(2-(allyloxy)phenoxy)-3-(isopropylamino)propan-2-ol]
[1]; 10 mg/kg/day vs. placebo
  HR Progression from score 1 to score 2 (FIG. 17): 0.47
  HR Progression from score 1 to score 3 (FIG. 19): 0.60
  HR Progression from score 2 to score 3 (FIG. 18): 1.04
[1]; 20 mg/kg/day vs. placebo
  HR Progression from score 1 to score 2 (FIG. 17): 0.54
  HR Progression from score 1 to score 3 (FIG. 19): 0.63
  HR Progression from score 2 to score 3 (FIG. 18): 0.74
[2]; 10 mg/kg/day vs. placebo
  HR survival (FIG. 14): 0.57
  HR survival (FIG. 16): 0.60
  HR survival (FIG. 15): 0.49
[2]; [5]
  HR survival (FIG. 14): 1.32
  HR survival (FIG. 16): 1.26
  HR survival (FIG. 15): 1.24
[2]; 20 mg/kg/day vs. placebo
  HR survival (FIG. 14): 0.54
  HR survival (FIG. 16): 0.41
  HR survival (FIG. 15): 0.41
[3]; all mice, 10 mg/kg/d
  Δ body weight: -6.36 ± 0.39 g
  Δ fat mass: -1.71 ± 0.15 g
  Δ lean mass: -5.11 ± 0.32 g
  Average Δ body weight: -146.1 ± 11.1 mg/day
  Average Δ fat mass: -38.3 ± 4.2 mg/day
  Average Δ lean mass: -125.8 ± -12.7 mg/day
[3]; all mice, 20 mg/kg/d
  Δ body weight: -5.21 ± 0.39 g
  Δ fat mass: -1.59 ± 0.15 g
  Δ lean mass: -4.60 ± 0.28 g
  Average Δ body weight: -111.0 ± 9.4 mg/day
  Average Δ fat mass: -32.6 ± 3.0 mg/day
  Average Δ lean mass: -96.6 ± 6.4 mg/day
[3]; female mice, 10 mg/kg/d
  Δ body weight: -6.19 ± 0.42 g
  Δ fat mass: -1.87 ± 0.22 g
  Δ lean mass: -3.76 ± 0.41 g
  Average Δ body weight: -137.4 ± 15.5 mg/day
  Average Δ fat mass: -41.4 ± 5.3 mg/day
  Average Δ lean mass: -121.3 ± 25.7 mg/day
[3]; female mice, 20 mg/kg/d
  Δ body weight: -4.85 ± 0.55 g
  Δ fat mass: -1.71 ± 0.26 g
  Δ lean mass: -4.55 ± 0.37 g
  Average Δ body weight: -105.2 ± 13.1 mg/day
  Average Δ fat mass: -35.6 ± 5.0 mg/day
  Average Δ lean mass: -85.2 ± 9.1 mg/day
[3]; male mice, 10 mg/kg/d
  Δ body weight: -6.515 ± 0.65 g
  Δ fat mass: -1.57 ± 0.21 g
  Δ lean mass: -5.55 ± 0.47 g
  Average Δ body weight: -153.5 ± 16.1 mg/day
  Average Δ fat mass: -37.4 ± 6.4 mg/day
  Average Δ lean mass: -129.7 ± 9.9 mg/day
[3]; male mice, 20 mg/kg/d
  Δ body weight: -5.53 ± 0.57 g
  Δ fat mass: -1.48 ± 0.16 g
  Δ lean mass: -5.12 ± 0.38 g
  Average Δ body weight: -116.0 ± 13.7 mg/day
  Average Δ fat mass: -29.9 ± 3.5 mg/day
  Average Δ lean mass: -106.4 ± 8.5 mg/day
[4]; all mice, 10 mg/kg/d
  BAT (brown adipose tissue): 44.5 ± 3.4 mg
  EDL (extensor digitorum longus): 6.53 ± 0.47 mg
  soleus: 4.49 ± 0.36 mg
  Heart: 101.2 ± 2.7 mg
  gastrocnemius: 50.8 ± 3.3 mg
[4]; all mice, 20 mg/kg/d
  BAT (brown adipose tissue): 43.3 ± 4.1 mg
  EDL (extensor digitorum longus): 5.89 ± 0.31 mg
  soleus: 5.49 ± 0.34 mg
  Heart: 100.7 ± 3.8 mg
  gastrocnemius: 47.0 ± 2.6 mg
[4]; female mice, 10 mg/kg/d
  BAT (brown adipose tissue): 42.1 ± 4.6 mg
  EDL (extensor digitorum longus): 6.45 ± 0.75 mg
  soleus: 4.23 ± 0.51 mg
  Heart: 94.4 ± 3.4 mg
  gastrocnemius: 47.5 ± 4.1 mg
[4]; female mice, 20 mg/kg/d
  BAT (brown adipose tissue): 32.6 ± 1.9 mg
  EDL (extensor digitorum longus): 5.98 ± 0.47 mg
  soleus: 5.09 ± 0.52 mg
  Heart: 88.5 ± 4.6 mg
  gastrocnemius: 43.6 ± 4.2 mg
[4]; male mice, 10 mg/kg/d
  BAT (brown adipose tissue): 46.7 ± 4.9 mg
  EDL (extensor digitorum longus): 6.59 ± 0.61 mg
  soleus: 4.74 ± 0.51 mg
  Heart: 107.4 ± 3.4 mg
  gastrocnemius: 53.8 ± 5.1 mg
[4]; male mice, 20 mg/kg/d
  BAT (brown adipose tissue): 53.9 ± 6.8 mg
  EDL (extensor digitorum longus): 5.81 ± 0.42 mg
  soleus: 5.84 ± 0.45 mg
  Heart: 112.0 ± 4.1 mg
  gastrocnemius: 49.9 ± 3.0 mg
